US20220227729A1, “IDENTIFICATION AND USE OF KRAS INHIBITORS” (Bayer Aktiengesellschaft, priority 2019, published 2022)

Tests used:
KRAS^G12C = KRAS^G12C (Homo sapiens, UniProt P01116, G12C); assay: KRAS G12C activation by SOS1cat assay (On-assay), HTRF; conditions: SOS1cat mediated loading of GST-KRAS G12C-GDP with fluorescent GTP analogue; 180 min preincubation; 20° C.; read-out: IC50 value biochemical KRAS^G12C activation assay
Experimental: (§1) Preparation of test compound dilutions. A 100-fold concentrated solution of the test compound (50 nL) in DMSO was transferred to microtiter test plates (384 or 1,536 wells, Greiner Bio-One, Germany) using either a Hummingbird liquid handler (Digilab, MA, USA) or an Echo acoustic system (Labcyte, CA, USA). Plates were sealed with adhesive foil or heat-sealed and stored at −20° C. until use. Serial dilutions of test compounds were prepared in 100% DMSO using a Precision Pipetting System (BioTek, USA).
(§2) Measurement and evaluation of inhibition data, calculation of IC50 values. Homogeneous time-resolved fluorescence (HTRF) was measured with a PHERAstar reader (BMG, Germany) using the HTRF module (excitation: 337 nm; emission 1: 620 nm, emission 2: 665 nm). The ratio of the emissions at 665 and 620 nm was used as the specific signal for further evaluation. The data were normalized using the controls: DMSO=0% inhibition, inhibition control wells with inhibitor control solution=100% inhibition. Compounds were tested in duplicates at up to 11 concentrations (e.g. 20 μM, 5.7 μM, 1.6 μM, 0.47 μM, 0.13 μM, 38 nM, 11 nM, 3.1 nM, 0.89 nM, 0.25 nM and 0.073 nM). IC50 values were calculated using a four-parameter fit, with a commercial software package (Genedata Screener, Switzerland).
(§3) KRAS^G12C activation by SOS1^cat assay (“On-assay”). This assay quantifies SOS1^cat mediated loading of KRAS^G12C-GDP with a fluorescent GTP analogue. Detection of successful loading was achieved by measuring resonance energy transfer from anti-GST-terbium (FRET donor) bound to GST-KRAS^G12c to the loaded fluorescent GTP analogue (FRET acceptor). The fluorescent GTP analogue EDA-GTP-DY-647P1 [2′/3′-O-(2-aminoethyl-carbamoyl)guanosine-5′-triphosphate labelled with DY-647P1 (Dyomics GmbH, Germany)] was synthesized by Jena Bioscience (Germany) and supplied as a 1 mM aqueous solution. A KRAS^G12C working solution was prepared in assay buffer [10 mM HEPES pH 7.4 (AppliChem), 150 mM NaCl (Sigma), 5 mM MgCl2 (Sigma), 1 mM DTT (Thermo Fisher), 0.05% BSA Fraction V pH 7.0 (ICN Biomedicals), 0.0025% (v/v) Igepal (Sigma)] containing 100 nM GST-KRAS^G12C and 2 nM anti-GST-terbium (Cisbio, France). A SOS1^cat working solution was prepared in assay buffer containing 20 nM SOS1^cat and 200 nM EDA-GTP-DY-647P1. An inhibitor control solution was prepared in assay buffer containing 200 nM EDA-GTP-DY-647P1 without SOS1^cat. All steps of the assay were performed at 20° C. A volume of 2.5 μL of the KRAS^G12C working solution was added to all wells of the test plate using a Multidrop dispenser (Thermo LabSystems). After 180 min, 2.5 μL of the SOS1^cat working solution was added to all wells, except for the inhibitor control solution wells. After 30 min incubation, HTRF was measured.

[1] = target: recombinant kRas mutant (G12C; C51S; C80L; C118S) (Homo sapiens, UniProt P01116, C118S/C51S/C80L/G12C); assay: Covalent binding assay, intact mass LC-MS; conditions: 25 μM protein, 25 μM compound, room temperature, 2 h
Experimental: The percentage of covalent adduct formation at KRas G12C was determined by intact mass determination. To this end 25 μM recombinant kRas mutant (G12C; C51S; C80L; C118S) (storage buffer: 50 mM Tris, pH=8; 50 mM NaCl) were incubated with 25 μM of compound (1% v/v final DMSO concentration) at room temperature for 2 h. For LC-MS analysis the reaction was acidified by adding 4 μL of 4% v/v TFA to 20 μL reaction volume.
Liquid chromatography-mass spectrometry (LC-MS) analysis was performed using a Waters SYNAPT G2-S quadrupole time-of-flight mass spectrometer connected to a Waters nanoAcquity UPLC system. Samples were loaded on a 2.1×5 mm mass prep C4 guard column (Waters) and desalted with a short gradient (3 min.) of increasing concentrations of acetonitrile at a flow rate of 100 μL/min. Spectra were analyzed by using MassLynx v4.1 software and deconvoluted with the MaxEnt1 algorithm.
Percent conversion was determined by the ratio of signal intensities of apo-kRas and kRas+inhibitor.

KRAS^WT = KRAS^WT (Homo sapiens, UniProt P01116); assay: Wild-type KRAS activation by SOS1cat assay, HTRF; conditions: SOS1cat mediated loading of GST-KRAS WT-GDP with fluorescent GTP analogue; 50 nM GST-KRAS WT; read-out: IC50 value biochemical KRAS^wt activation assay
Experimental: as §1, §2, §3
Wild-type KRAS activation by SOS1^cat assay. This assay quantifies human SOS1^cat mediated loading of wild-type GST-KRAS^WT-GDP with a fluorescent GTP analogue. The assay was performed similar to the KRAS^G12C activation by SOS1^cat assay. GST-KRAS^G12C was replaced by GST-KRAS^WT, which was used at 50 nM final concentration.

SMILES | IC50 (KRAS^G12C) [µM] | Covalent Binding Assay (% binding) [1] [%] | IC50 (KRAS^WT) [µM]
C=CC(=O)N1CCC(c2cc3ccc(-c4c(O)cccc4F)cc3c(=O)[nH]2)C1 (stereo not shown) [Example 1, 7-(2-Fluoro-6-hydroxyphenyl)-3-[1-(prop-2-enoyl)pyrrolidin-3-yl]isoquinolin-1(2H)-one] | 4.7 |  | 
C=CC(=O)N1CCC(c2cc3ccc(-c4cccc5ncccc45)cc3c(=O)[nH]2)C1 (stereo not shown) [Example 2, 3-[1-(Prop-2-enoyl)pyrrolidin-3-yl]-7-(quinolin-5-yl)isoquinolin-1(2H)-one] | > 9 | 20 | 
C=CC(=O)N1CCC(c2cc3ccc(-c4cccc5[nH]ccc45)cc3c(=O)[nH]2)C1 (stereo not shown) [Example 3, 7-(1H-Indol-4-yl)-3-[1-(prop-2-enoyl)pyrrolidin-3-yl]isoquinolin-1(2H)-one] | > 20 | 8 | > 20
C=CC(=O)N1CCC(c2cc3ccc(-c4ccc(F)cc4F)cc3c(=O)[nH]2)C1 (stereo not shown) [Example 4, 7-(2,4-Difluorophenyl)-3-[1-(prop-2-enoyl)pyrrolidin-3-yl]isoquinolin-1(2H)-one] | 5 |  | 
C=CC(=O)N1CCC(c2cc3ccc(-c4ccccc4CC)cc3c(=O)[nH]2)C1 (stereo not shown) [Example 5, 7-(2-Ethylphenyl)-3-[1-(prop-2-enoyl)pyrrolidin-3-yl]isoquinolin-1(2H)-one] | 8 | 60 | 
C=CC(=O)N1CCC(c2cc3ccc(-c4ccc(F)c(OCC)c4F)cc3c(=O)[nH]2)C1 (stereo not shown) [Example 6, 7-(3-Ethoxy-2,4-difluorophenyl)-3-[1-(prop-2-enoyl)pyrrolidin-3-yl]isoquinolin-1(2H)-one] | > 20 | 3 | > 20
C=CC(=O)N1CCC(c2cc3ccc(-c4ccc(F)c(F)c4F)cc3c(=O)[nH]2)C1 (stereo not shown) [Example 7, 3-[1-(Prop-2-enoyl)pyrrolidin-3-yl]-7-(2,3,4-trifluorophenyl)isoquinolin-1(2H)-one] | > 7 | 31 | > 20
C=CC(=O)N1CCC(c2cc3ccc(-c4cc(F)cc(F)c4)cc3c(=O)[nH]2)C1 (stereo not shown) [Example 8, 7-(3,5-Difluorophenyl)-3-[1-(prop-2-enoyl)pyrrolidin-3-yl]isoquinolin-1(2H)-one] |  | 0 | 
C=CC(=O)N1CCC(c2cc3cc(OC)c(-c4ncccc4F)cc3c(=O)[nH]2)C1 (stereo not shown) [Example 9, 7-(3-Fluoropyridin-2-yl)-6-methoxy-3-[-1-(prop-2-enoyl)pyrrolidin-3-yl]isoquinolin-1(2H)-one] | > 20 | 0 | > 20
C=CC(=O)N1CCC(c2cc3cc(O)c(-c4ncccc4F)cc3c(=O)[nH]2)C1 (stereo not shown) [Example 10, 3-(1-Acryloylpyrrolidin-3-yl)-7-(3-fluoropyridin-2-yl)-6-hydroxy-isoquinolin-1(2H)-one] | > 20 | 0 | > 20
C=CC(=O)N1CCC(c2nc3ccc(-c4c(F)cccc4OC)cc3c(=O)[nH]2)C1 (stereo not shown) [Example 11] | 16 | 41 | > 20
C=CC(=O)N1CCC(c2nc3ccc(-c4ccccc4F)cc3c(=O)[nH]2)C1 (stereo not shown) [Example 12, 6-(2-Fluorophenyl)-2-[1-(prop-2-enoyl)pyrrolidin-3-yl]quinazolin-4(3H)-one] | 6.2 | 70 | > 20
C=CC(=O)N1CCC(c2nc3ccc(-c4ccc(F)cc4F)cc3c(=O)[nH]2)C1 (stereo not shown) [Example 13, 6-(2,4-Difluorophenyl)-2-[1-(prop-2-enoyl)pyrrolidin-3-yl]quinazolin-4(3H)-one] | 8.4 | 57 | > 20
C=CC(=O)N1CCC(c2nc3ccc(-c4cccc5ncccc45)cc3c(=O)[nH]2)C1 (stereo not shown) [Example 14, 2-[1-(Prop-2-enoyl)pyrrolidin-3-yl]-6-(quinolin-5-yl)quinazolin-4(3H)-one] | > 20 | 22 | > 20
C=CC(=O)N1CCC(c2nc3ccc(-c4ccccc4CC)cc3c(=O)[nH]2)C1 (stereo not shown) [Example 15, 6-(2-Ethylphenyl)-2-[1-(prop-2-enoyl)pyrrolidin-3-yl]quinazolin-4(3H)-one] | 7.3 | 52 | > 20
C=CC(=O)N1CCC(c2nc3ccc(-c4cc(Cl)cc(C#N)c4)cc3c(=O)[nH]2)C1 (stereo not shown) [Example 16, 3-Chloro-5-{4-oxo-2-[1-(prop-2-enoyl)pyrrolidin-3-yl]-3,4-dihydroquinazolin-6-yl}benzonitrile] | > 20 | 0 | > 20
C=CC(=O)N1CCC(c2nc3ccc(-c4c(O)cccc4F)cc3c(=O)[nH]2)C1 (stereo not shown) [Example 17, 6-(2-Fluoro-6-hydroxyphenyl)-2-[1-(prop-2-enoyl)pyrrolidin-3-yl]quinazolin-4(3H)-one] | 4.9 |  | 
C=CC(=O)N1CCC(c2nc3ccc(-c4cncc5ccccc45)cc3c(=O)[nH]2)C1 (stereo not shown) [Example 18, 6-(Isoquinolin-4-yl)-2-[1-(prop-2-enoyl)pyrrolidin-3-yl]quinazolin-4(3H)-one] | > 20 | 4 | > 20
C=CC(=O)N1CCC(c2nc3ccc(-c4sc(C)nc4C)cc3c(=O)[nH]2)C1 (stereo not shown) [Example 19, 6-(2,4-dimethyl-1,3-thiazol-5-yl)-2[1-(prop-2-enoyl)pyrrolidin-3-yl]quinazolin-4(3H)-one] | > 20 | 4 | > 20
C=CC(=O)N1CCC(c2cc3cc(Cl)c(-c4c(O)cccc4F)cc3c(=O)[nH]2)C1 (stereo not shown) [Example 27, 6-Chloro-7-(2-fluoro-6-hydroxyphenyl)-3-[1-(prop-2-enoyl)pyrrolidin-3-yl]isoquinolin-1(2H)-one] | 16 |  | 
C=CC(=O)N1CCC(c2cc3ncc(-c4c(O)cccc4F)cc3c(=O)[nH]2)C1 (stereo not shown) [Example 29, 3-(2-Fluoro-6-hydroxyphenyl)-7-[1-(prop-2-enoyl)pyrrolidin-3-yl]-1,6-naphthyridin-5(6H)-one] | 2.8 | 80 | 
C=CC(=O)N1CCC(c2cc3cnc(-c4c(O)cccc4F)cc3c(=O)[nH]2)C1 (stereo not shown) [Example 42, 7-(2-Fluoro-6-hydroxyphenyl)-3-[1-(prop-2-enoyl)pyrrolidin-3-yl]-2,6-naphthyridin-1(2H)-one] | 1.3 | 61 | 
